Experimental data from patent publication US20240025906A1 (NEURON23, INC., priority 2022, published 2024).
Where two headings read alike, the source gives them in different places.

How the values were obtained:
[1] = tested on: JAK1/TYK2 pSTAT5 (Tyr694/699) in THP-1 cell line; experiment: IFNa-stimulated JAK1/TYK2 pSTAT5 (Tyr694/699) inhibition cellular assay, AlphaLISA; format: cell-based; conditions: THP-1 cells, AlphaLISA (Assay B)
Summary of the method: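 THP-1 cells (2e4/well) in HBSS preincubated 1 h at 37° C. with compound (final 10000–0.04 nM, 8 points, 6-fold), then stimulated with IFNa (100 ng/mL stock) for 30 min before lysis. pSTAT5 (Tyr694/699) read by AlphaLISA at 615 nm; IC50 from four-parameter logistic fit with bottom fixed at 0 and Hill slope at −1.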

TYK2 JH2 = molecular target: T1, TYK2 JH2 (Homo sapiens, UniProt P29597); experiment: TYK2 JH2 binding assay (KINOMEscan KdELECT competitive binding); conditions: TYK2 JH2 domain
T1 construct: purchased DiscoverX (KINOMEscan KdELECT service); host or cells: E. coli BL21-derived (T7 phage display) or HEK-293
Summary of the method: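 JH2-domain fragment, expressed as T7 phage tag in BL21-derived E. coli or DNA-tagged from HEK-293, competed with test compound against bead-immobilized biotinylated ligand in binding buffer (0.9% DMSO). 1 h shaking at room temperature; bound kinase eluted with 0.5 μM free ligand and quantified by qPCR. Kd from 11-point 3-fold dilutions.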

[2] = KINOMEscan KdELECT (Assay A), read-out: Biochemical TYK2_JH2_Kd
[3] = Homo sapiens, IFNa-stimulated, read-out: Cellular_THP1_IFNa-pSTATS_TYK2
[4] = DiscoverX KINOMEscan KdELECT (Assay A), read-out: Biochemical TYK2_DiscoverX_JH2_BND_Kd
[5] = KINOMEscan KdELECT (Assay A), read-out: Biochemical TYK2_DiscoverX_JH2_BND_Kd
[6] = Homo sapiens, IFNa-stimulated, read-out: Cellular THP1_IFNa-pSTATS_IC50

T1 sequence (P29597 589-875 limits assumed): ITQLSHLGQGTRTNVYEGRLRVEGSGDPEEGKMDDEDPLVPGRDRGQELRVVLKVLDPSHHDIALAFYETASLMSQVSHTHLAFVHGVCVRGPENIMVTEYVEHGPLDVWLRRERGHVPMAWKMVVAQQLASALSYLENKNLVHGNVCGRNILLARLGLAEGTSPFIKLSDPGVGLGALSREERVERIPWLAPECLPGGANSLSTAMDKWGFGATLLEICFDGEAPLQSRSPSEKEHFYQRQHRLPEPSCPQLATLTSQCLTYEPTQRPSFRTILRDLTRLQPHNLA

Row | SMILES | IC50 [1, 3] [nM] | Kd (TYK2 JH2; [5]) [nM] | also measured
1 | CNc1ncc(-c2ccccc2)c2cc(NC(=O)C3CC3F)ncc12 (stereo not shown) [Example 104, 2-fluoro-N-(8-(methylamino)-5-phenyl-2,7-naphthyridin-3-yl)cyclopropane-1-carboxamide] |  |  | IC50 ([1]; IFNa-stimulated, read-out: Cellular THP1_IFNa-pSTATS_IC50): > 500 nM; Kd (TYK2 JH2; [2]): ≤ 100 nM
2 | CNc1ncc(C#Cc2ccc(OC)cn2)c2cc(NC(=O)[C@@H]3C[C@@H]3CF)ncc12 (single isomer, unassigned) [Example 823] | ≤ 500 | ≤ 100 | 
3 | CNc1ncc(C#Cc2ccc(N3CCOC3=O)cc2)c2cc(NC(=O)C3CC3)ncc12 [Example 675, N-(8-(methylamino)-5-((4-(2-oxooxazolidin-3-yl)phenyl)ethynyl)-2,7-naphthyridin-3-yl)cyclopropanecarboxamide] | ≤ 500 | ≤ 100 | 
4 | CNc1ncc(-c2nc3ccc(OC)cc3o2)c2cc(NC(=O)C3CC3)ncc12 [Example 203, N-(5-(6-methoxybenzo[d]oxazol-2-yl)-8-(methylamino)-2,7-naphthyridin-3-yl)cyclopropanecarboxamide] | ≤ 500 |  | Kd (TYK2 JH2; [4]): ≤ 100 nM
5 | CNc1ncc(-c2nc3cc(N4CC[C@H]4C(N)=O)ccc3o2)c2cc(NC(=O)C3CC3)ncc12 [Example 321, (S)-1-(2-(6-(cyclopropanecarboxamido)-1-(methylamino)-2,7-naphthyridin-4-yl)benzo[d]oxazol-5-yl)azetidine-2-carboxamide] | ≤ 500 |  | Kd (TYK2 JH2; [4]): ≤ 100 nM
6 | CNc1ncc(-c2nc3ccccc3s2)c2cc(NC(=O)C3CC3)ncc12 [Example 145, N-(5-(benzo[d]thiazol-2-yl)-8-(methylamino)-2,7-naphthyridin-3-yl)cyclopropanecarboxamide] |  |  | IC50 [1, 6]: ≤ 500 nM; Kd (TYK2 JH2; [2]): ≤ 100 nM
7 | CNc1ncc(-c2nc3cc(N4CCOC(COC)C4)ccc3o2)c2cc(NC(=O)C3CC3)ncc12 (stereo not shown) [Example 918, N-(5-(5-(2-(methoxymethyl)morpholino)benzo[d]oxazol-2-yl)-8-(methylamino)-2,7-naphthyridin-3-yl)cyclopropanecarboxamide] | ≤ 500 | ≤ 100 | 
8 | CNc1ncc(-c2cccc(COCCOC)c2)c2cc(NC(=O)C3CC3)ncc12 [Example 172, N-(5-(3-((2-methoxyethoxy)methyl)phenyl)-8-(methylamino)-2,7-naphthyridin-3-yl)cyclopropanecarboxamide] |  |  | IC50 [1, 6]: > 500 nM; Kd (TYK2 JH2; [2]): ≤ 100 nM
9 | CNc1ncc(C#Cc2ccc(N3CCC3COC)cn2)c2cc(NC(=O)C3CC3)ncc12 (stereo not shown) [Example 727, N-(5-((5-(2-(methoxymethyl)azetidin-1-yl)pyridin-2-yl)ethynyl)-8-(methylamino)-2,7-naphthyridin-3-yl)cyclopropanecarboxamide] | ≤ 500 | ≤ 100 | 
10 | CNc1ncc(C2CCOC2=O)c2cc(NC(=O)C3CC3)ncc12 (stereo not shown) [Example 86, N-(8-(methylamino)-5-(2-oxotetrahydrofuran-3-yl)-2,7-naphthyridin-3-yl)cyclopropanecarboxamide] |  |  | IC50 [1, 6]: > 500 nM; Kd (TYK2 JH2; [2]): ≤ 100 nM
11 | CNc1ncc(C#Cc2ccc3oc(COC)cc3c2)c2cc(NC(=O)C3CC3)ncc12 [Example 717, N-(5-((2-(methoxymethyl)benzofuran-5-yl)ethynyl)-8-(methylamino)-2,7-naphthyridin-3-yl)cyclopropanecarboxamide] | ≤ 500 | ≤ 100 | 
12 | CNc1ncc(C#Cc2ccn3c(C)nnc3c2)c2cc(NC(=O)C3CC3)ncc12 [Example 615, N-(5-((3-methyl-[1,2,4]triazolo[4,3-a]pyridin-7-yl)ethynyl)-8-(methylamino)-2,7-naphthyridin-3-yl)cyclopropanecarboxamide] | ≤ 500 | ≤ 100 | 
13 | CNc1ncc(-c2ccccc2)c2cc(NC(=O)C3(F)CC3)ncc12 [Example 161, 1-fluoro-N-(8-(methylamino)-5-phenyl-2,7-naphthyridin-3-yl)cyclopropane-1-carboxamide] |  |  | IC50 [1, 6]: > 500 nM; Kd (TYK2 JH2; [2]): ≤ 100 nM
14 | CNc1ncc(C#Cc2cccc(OC)c2)c2cc(NC(=O)C3CC3)ncc12 [Example 629, N-(5-((3-methoxyphenyl)ethynyl)-8-(methylamino)-2,7-naphthyridin-3-yl)cyclopropanecarboxamide] | ≤ 500 | ≤ 100 | 
15 | [2H]C([2H])([2H])Oc1ccc(C#Cc2cnc(NC)c3cnc(NC(=O)C4CC4)cc23)nc1 [Example 722, N-(5-((5-(methoxy-d3)pyridin-2-yl)ethynyl)-8-(methylamino)-2,7-naphthyridin-3-yl)cyclopropanecarboxamide] | ≤ 500 | ≤ 100 | 
16 | CNc1ncc(-c2ccn(CC(C)C)n2)c2cc(NC(=O)C3CC3)ncc12 [Example 149, N-(5-(1-isobutyl-1H-pyrazol-3-yl)-8-(methylamino)-2,7-naphthyridin-3-yl)cyclopropanecarboxamide] |  |  | IC50 [1, 6]: > 500 nM; Kd (TYK2 JH2; [2]): ≤ 100 nM
17 | CNc1ncc(-c2nc3ccc(N4CC5CCC(C4)O5)cn3n2)c2cc(NC(=O)C3CC3)ncc12 [Example 584, N-(5-(6-(8-oxa-3-azabicyclo[3.2.1]octan-3-yl)-[1,2,4]triazolo[1,5-a]pyridin-2-yl)-8-(methylamino)-2,7-naphthyridin-3-yl)cyclopropanecarboxamide] | ≤ 500 |  | Kd (TYK2 JH2; [4]): ≤ 100 nM
18 | CNc1ncc(-c2ccns2)c2cc(NC(=O)C3CC3)ncc12 [Example 84, N-(5-(isothiazol-5-yl)-8-(methylamino)-2,7-naphthyridin-3-yl)cyclopropanecarboxamide] |  |  | IC50 [1, 6]: > 500 nM; Kd (TYK2 JH2; [2]): ≤ 100 nM
19 | CNc1ncc(-c2cnsc2)c2cc(NC(=O)C3CC3)ncc12 [Example 83, N-(5-(isothiazol-4-yl)-8-(methylamino)-2,7-naphthyridin-3-yl)cyclopropanecarboxamide] |  |  | IC50 [1, 6]: > 500 nM; Kd (TYK2 JH2; [2]): ≤ 100 nM
20 | [2H]C([2H])([2H])Nc1ncc(-c2nc3ccccn3n2)c2cc(NC(=O)C3CC3F)ncc12 (racemic) [Example 565, N-(5-([1,2,4]triazolo[1,5-a]pyridin-2-yl)-8-((methyl-d3)amino)-2,7-naphthyridin-3-yl)-2-fluorocyclopropane-1-carboxamide] |  |  | IC50 ([1]; IFNa-stimulated, read-out: Cellular_THP1_IFNa-pSTATS_TYK2): ≤ 500 nM; Kd (TYK2 JH2; [4]): ≤ 100 nM

Now from value to compound, other results behind:

Row | IC50 [1, 3] [nM] | Kd (TYK2 JH2; [5]) [nM] | SMILES | also measured
21 | ≤ 500 |  | CNc1ncc(-c2nc3cc(N4CCCC5(CCO5)C4)ccc3o2)c2cc(NC(=O)C3CC3)ncc12 (stereo not shown) [Example 313, N-(5-(5-(1-oxa-6-azaspiro[3.5]nonan-6-yl)benzo[d]oxazol-2-yl)-8-(methylamino)-2,7-naphthyridin-3-yl)cyclopropanecarboxamide] | Kd (TYK2 JH2; [4]): ≤ 100 nM
22 | ≤ 500 |  | CNc1ncc(-c2nc3cc(N4CCOC(CO)C4)ccc3o2)c2cc(NC(=O)C3CC3)ncc12 (stereo not shown) [Example 333, N-(5-(5-(2-(hydroxymethyl)morpholino)benzo[d]oxazol-2-yl)-8-(methylamino)-2,7-naphthyridin-3-yl)cyclopropanecarboxamide] | Kd (TYK2 JH2; [4]): ≤ 100 nM
23 | ≤ 500 | ≤ 100 | CNc1ncc(C#Cc2ccc3c(c2)C=CC(C)(C)O3)c2cc(NC(=O)C3CC3)ncc12 [Example 978, N-[5-[2-(2,2-dimethylchromen-6-yl)ethynyl]-8-(methylamino)-2,7-naphthyridin-3-yl]cyclopropanecarboxamide] | 
24 | ≤ 500 | ≤ 100 | CNc1ncc(C#Cc2ccc(C(F)(F)F)cn2)c2cc(NC(=O)C3CC3)ncc12 [Example 657, N-(8-(methylamino)-5-((5-(trifluoromethyl)pyridin-2-yl)ethynyl)-2,7-naphthyridin-3-yl)cyclopropanecarboxamide] | 
25 | ≤ 500 | ≤ 100 | CNc1ncc(C#Cc2ccc(OCC3CCO3)cc2)c2cc(NC(=O)C3CC3)ncc12 (stereo not shown) [Example 702, N-(8-(methylamino)-5-((4-(oxetan-2-ylmethoxy)phenyl)ethynyl)-2,7-naphthyridin-3-yl)cyclopropanecarboxamide] | 
26 | > 500 | ≤ 100 | CNc1ncc(CCc2ccc(OC(F)(F)F)cc2)c2cc(NC(=O)C3CC3)ncc12 [Example 848, N-(8-(methylamino)-5-(4-(trifluoromethoxy)phenethyl)-2,7-naphthyridin-3-yl)cyclopropanecarboxamide] | 
27 | ≤ 500 | ≤ 100 | CNc1ncc(C#Cc2ccc3nc(C)sc3c2)c2cc(NC(=O)C3CC3)ncc12 [Example 628, N-(8-(methylamino)-5-((2-methylbenzo[d]thiazol-6-yl)ethynyl)-2,7-naphthyridin-3-yl)cyclopropanecarboxamide] | 
28 |  | ≤ 100 | CNc1ncc(-c2nc3ccc(N4CCOC(CCCO)C4)cn3n2)c2cc(NC(=O)C3CC3)ncc12 (stereo not shown) [Example 1053] | IC50 ([1]; Homo sapiens, IFNa-stimulated pSTAT5 (Tyr694/699), read-out: Cellular_THP1_IFNa-pSTATS_TYK2): ≤ 500 nM
29 | ≤ 500 | ≤ 100 | CNc1ncc(C#Cc2ccc3c(cnn3C)c2)c2cc(NC(=O)C3CC3)ncc12 [Example 649, N-(5-((1-methyl-1H-indazol-5-yl)ethynyl)-8-(methylamino)-2,7-naphthyridin-3-yl)cyclopropanecarboxamide] | 
